Molecular target: T1, human D3 dopamine receptors (Homo sapiens, UniProt P35462)
T1 construct: expressed in transfected cells; host or cells: CHO cells (crude cell membranes)
Experiment: displacement of [125I] iodosulpride binding to cloned human D3 dopamine receptors expressed in CHO cells
Details: 0.1 nM [125I] iodosulpride, CHO cell membranes, 30 min at 37° C.; read-out: pKi at the D3 receptor (converted)
Experimental: The inhibition constants (Ki) of test compounds for displacement of [^125I] iodosulpride binding to human D3 dopamine receptors expressed in CHO cells were determined as follows. […] Cultures were grown as monolayers or in suspension in standard cell culture media. Cells were recovered by scraping (from monolayers) or by centrifugation (from suspension cultures), and were washed two or three times by suspension in phosphate buffered saline followed by collection by centrifugation. Cell pellets were stored frozen at −40° C. Crude cell membranes were prepared by homogenisation followed by high-speed centrifugation, and characterisation of cloned receptors achieved by radioligand binding.
Cell pellets were gently thawed at room temperature, and resuspended in about 20 volumes of ice-cold 50 mM Tris salts (pH 7.4@37° C.), 20 mM EDTA, 0.2 M sucrose. The suspension was homogenised using an Ultra-Turrax at full speed for 15 sec. The homogenate was centrifuged at 18,000 r.p.m for 20 min at 4° C. in a Sorvall RC5C centrifuge. The membrane pellet was resuspended in ice-cold 50 mM Tris salts (pH 7.4@37° C.), using an Ultra-Turrax, and recentrifuged at 18,000 r.p.m for 15 min at 4° C. in a Sorvall RC5C. The membranes were washed two more times with ice-cold 50 mM Tris salts (pH 7.4@37° C.). The final pellet was resuspended in 50 mM Tris salts (pH 7.4@37° C.), and the protein content determined using bovine serum albumin as a standard (Bradford, M. M. (1976) Anal. Biochem. 72, 248-254).
Crude cell membranes were incubated with 0.1 nM [^125I] iodosulpride (˜2000 Ci/mmol; Amersham, U. K.), and the test compound in a buffer containing 50 mM Tris salts (pH 7.4@37° C.), 120 mM NaCl, 5 mM KCl, 2 mM CaCl2, 1 mM MgCl2, 0.1% (w/v) bovine serum albumin, in a total volume of 1 ml for 30 min at 37° C. Following incubation, samples were filtered using a Brandel Cell Harvester, and washed three times with ice-cold 50 mM Tris salts (pH 7.4@37° C.), 120 mM NaCl, 5 mM KCl, 2 mM CaCl2, 1 mM MgCl2. The radioactivity on the filters was measured using a Cobra gamma counter (Canberra Packard). Non-specific binding was defined as the radioligand binding remaining after incubation in the presence of 100 μM iodosulpride. For competition curves, 14 concentrations (half-log dilutions) of competing cold drug were used. Competition curves were analysed simultaneously whenever possible using non-linear least-squares fitting procedures, capable of fitting one, two or three site models.

T1 sequence (P35462 whole entry): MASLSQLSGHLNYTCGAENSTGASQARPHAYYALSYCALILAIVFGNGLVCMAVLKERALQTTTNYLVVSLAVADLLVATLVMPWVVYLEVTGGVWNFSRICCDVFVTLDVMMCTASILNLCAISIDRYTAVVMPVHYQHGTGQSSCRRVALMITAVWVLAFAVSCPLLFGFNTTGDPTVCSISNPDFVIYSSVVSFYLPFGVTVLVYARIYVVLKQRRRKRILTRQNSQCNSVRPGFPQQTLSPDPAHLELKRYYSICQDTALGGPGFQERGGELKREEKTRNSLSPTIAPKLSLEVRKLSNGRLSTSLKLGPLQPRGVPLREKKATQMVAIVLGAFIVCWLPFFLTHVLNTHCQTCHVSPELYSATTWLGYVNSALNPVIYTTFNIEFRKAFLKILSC

Structure (SMILES)	Ki [nM]
N#Cc1ccc2c(c1)CCN(CC[C@H]1CC[C@H](NC(=O)Cc3cccc(F)c3)CC1)C2 [Example 4, trans-6-Cyano-2-(2-(1-(4-(3-fluorophenyl)acetamido)cyclohexyl)ethyl)-1,2,3,4-tetrahydroisoquinoline]	3.16 to 12.6
N#Cc1cccc(CC(=O)N[C@H]2CC[C@H](CCN3CCc4cc(C#N)ccc4C3)CC2)c1 [Example 6, trans-6-Cyano-2-(2-(1-(4-(3-cyanophenyl)acetamido)cyclohexyl)ethyl)-1,2,3,4-tetrahydroisoquinoline]	3.16 to 12.6
N#Cc1ccc(CC(=O)N[C@H]2CC[C@H](CCN3CCc4cc(C#N)ccc4C3)CC2)cc1 [Example 7, trans-6-Cyano-2-(2-(1-(4-(4-cyanophenyl)acetamido)cyclohexyl)ethyl)-1,2,3,4-tetrahydroisoquinoline]	3.16 to 12.6
N#Cc1ccc2c(c1)CCN(CC[C@H]1CC[C@H](NC(=O)Cc3ccc(-c4ccccc4)cc3)CC1)C2 [Example 9, trans-6-Cyano-2-(^2-(1-(4-(4-phenyl)phenylacetamido)cyclohexyl)-ethyl)-1,2,3,4-tetrahydroisoquinoline]	3.16 to 12.6
N#Cc1ccc2c(c1)CCN(CC[C@H]1CC[C@H](NC(=O)Cc3cccs3)CC1)C2 [Example 10, trans-6-Cyano-2-(2-(1-(4-(2-thienyl)acetamido)cyclohexyl)ethyl)-1,2,3,4-tetrahydroisoquinoline]	3.16 to 12.6
N#Cc1ccc2c(c1)CCN(CC[C@H]1CC[C@H](NC(=O)Cc3c[nH]c4ccccc34)CC1)C2 [Example 12, trans-6-Cyano-2-(2-(1-(4-(3-indolyl)acetamido)cyclohexyl)ethyl)-1,2,3,4-tetrahydroisoquinoline]	3.16 to 12.6
N#Cc1ccc2c(c1)CCN(CC[C@H]1CC[C@H](NC(=O)Cc3cc(F)ccc3F)CC1)C2 [Example 13, trans-6-Cyano-2-(2-(1-(4-(2,5-difluoro)phenylacetamido)cyclohexyl)-ethyl)-1,2,3,4-tetrahydroisoquinoline]	3.16 to 12.6
N#Cc1ccc2c(c1)CCN(CC[C@H]1CC[C@H](NC(=O)Cc3ccc(F)c(F)c3)CC1)C2 [Example 14, trans-6-Cyano-2-(2-(1-(4-(3,4-difluoro)phenylacetamido)cyclohexyl)-ethyl)-1,2,3,4-tetrahydroisoquinoline]	3.16 to 12.6
N#Cc1ccc2c(c1)CCN(CC[C@H]1CC[C@H](NC(=O)Cc3ccc(Br)cc3)CC1)C2 [Example 16, trans-6-Cyano-2-(2-(1-(4-(4-bromo)phenylacetamido)cyclohexyl)-ethyl)-1,2,3,4-tetrahydroisoquinoline]	3.16 to 12.6
N#Cc1ccc2c(c1)CCN(CC[C@H]1CC[C@H](NC(=O)Cc3cccc(C(F)(F)F)c3)CC1)C2 [Example 20, trans-6-Cyano-2-(2-(1-(4-(3-trifluoromethyl)phenylacetamido)-cyclohexyl)ethyl)-1,2,3,4-tetrahydroisoquinoline]	3.16 to 12.6
N#Cc1ccc2c(c1)CCN(CC[C@H]1CC[C@H](NC(=O)CCc3ccc(F)cc3)CC1)C2 [Example 25, trans-6-Cyano-2-(2-(1-(4-(3-(4-fluoro)phenyl)propionamido)-cyclohexyl)ethyl)-1,2,3,4-tetrahydroisoquinoline]	3.16 to 12.6

Further lines, results first:

Ki [nM]	Structure (SMILES)
3.16 to 12.6	N#Cc1ccc2c(c1)CCN(CC[C@H]1CC[C@H](NC(=O)Cc3ccccc3)CC1)C2 [Example 1, trans-6-Cyano-2-(2-(1-(4-phenylacetamido)cyclohexyl)ethyl)-1,2,3,4-tetrahydroisoquinoline]
3.16 to 12.6	N#Cc1ccc2c(c1)CCN(CC[C@H]1CC[C@H](NC(=O)Cc3ccc4ccccc4c3)CC1)C2 [Example 2, trans-6-Cyano-2-(2-(1-(4-(2-naphthyl)acetamido)cyclohexyl)ethyl)-1,2,3,4-tetrahydroisoquinoline]
3.16 to 12.6	N#Cc1ccc2c(c1)CCN(CC[C@H]1CC[C@H](NC(=O)Cc3ccccc3F)CC1)C2 [Example 3, trans-6-Cyano-2-(2-(1-(4-(2-fluorophenyl)acetamido)cyclohexyl)ethyl)-1,2,3,4-tetrahydroisoquinoline]
3.16 to 12.6	N#Cc1ccc2c(c1)CCN(CC[C@H]1CC[C@H](NC(=O)CCc3ccccc3)CC1)C2 [Example 8, trans-6-Cyano-2-(2-(1-(4-(3-phenyl)propionamido)cyclohexyl)ethyl)-1,2,3,4-tetrahydroisoquinoline]
3.16 to 12.6	N#Cc1ccc2c(c1)CCN(CC[C@H]1CC[C@H](NC(=O)Cc3ccsc3)CC1)C2 [Example 11, trans-6-Cyano-2-(2-(1-(4-(3-thienyl)acetamido)cyclohexyl)ethyl)-1,2,3,4-tetrahydroisoquinoline]
3.16 to 12.6	N#Cc1ccc2c(c1)CCN(CC[C@H]1CC[C@H](NC(=O)Cc3ccccn3)CC1)C2 [Example 15, trans-6-Cyano-2-(2-(1-(4-(2-pyridyl)acetamido)cyclohexyl)ethyl)-1,2,3,4-tetrahydroisoquinoline]
3.16 to 12.6	N#Cc1ccc2c(c1)CCN(CC[C@H]1CC[C@H](NC(=O)Cc3ccc(I)cc3)CC1)C2 [Example 17, trans-6-Cyano-2-(2-(1-(4-(4-iodo)phenylacetamido)cyclohexyl)ethyl)-1,2,3,4-tetrahydroisoquinoline]
3.16 to 12.6	N#Cc1ccc2c(c1)CCN(CC[C@H]1CC[C@H](NC(=O)Cc3cccc(Br)c3)CC1)C2 [Example 18, trans-6-Cyano-2-(2-(1-(4-(3-bromo)phenylacetamido)cyclohexyl)-ethyl)-1,2,3,4-tetrahydroisoquinoline]
3.16 to 12.6	N#Cc1ccc2c(c1)CCN(CC[C@H]1CC[C@H](NC(=O)Cc3ccc(F)cc3F)CC1)C2 [Example 19, trans-6-Cyano-2-(2-(1-(4-(2,4-difluoro)phenylacetamido)cyclohexyl)-ethyl)-1,2,3,4-tetrahydroisoquinoline]
3.16 to 12.6	CC(C)(C)c1ccc(CC(=O)N[C@H]2CC[C@H](CCN3CCc4cc(C#N)ccc4C3)CC2)cc1 [Example 21, trans-6-Cyano-2-(2-(1-(4-(4-t-butyl)phenylacetamido)cyclohexyl)-ethyl)-1,2,3,4-tetrahydroisoquinoline]
3.16 to 12.6	N#Cc1ccc2c(c1)CCN(CC[C@H]1CC[C@H](NC(=O)Cc3csc4ccccc34)CC1)C2 [Example 22, trans-6-Cyano-2-(2-(1-(4-(3-benzo[b]thienyl)acetarnido)cyclohexyl)-ethyl)-1,2,3,4-tetrahydroisoquinoline]
3.16 to 12.6	N#Cc1ccc2c(c1)CCN(CC[C@H]1CC[C@H](NC(=O)COc3ccccc3)CC1)C2 [Example 23, trans-6-Cyano-2-(2-(1-(4-phenoxyacetamido)cyclohexyl)ethyl)-1,2,3,4-tetrahydroisoquinoline]
3.16 to 12.6	N#Cc1ccc2c(c1)CCN(CC[C@H]1CC[C@H](NC(=O)CCCc3ccccc3)CC1)C2 [Example 24, trans-6-Cyano-2-(2-(1-(4-(4-phenyl)butyramido)cyclohexyl)ethyl)-1,2,3,4-tetrahydroisoquinoline]
3.16 to 12.6	N#Cc1ccc2c(c1)CCN(CC[C@H]1CC[C@H](NC(=O)Cc3ccnc4ccccc34)CC1)C2 [Example 26, trans-6-Cyano-2-(2-(1-(4-(4-quinolyl)acetamido)-cyclohexyl)ethyl)-1,2,3,4-tetrahydroisoquinoline]
3.16 to 12.6	N#Cc1ccc2c(c1)CCN(CC[C@H]1CC[C@H](NC(=O)Cc3ccc(C(F)(F)F)cc3)CC1)C2 [Example 27, trans-6-Cyano-2-(2-(1-(4-(4-trifluoromethyl)phenylacetamido)-cyclohexyl)ethyl)-1,2,3,4-tetrahydroisoquinoline]

Source: US6414154B1, “Tetraisoquinoline derivatives as modulators of dopamine D3 receptors” (SmithKline Beecham p.l.c., priority 1998, dated 2002)
